Literature values, collected in patent US12485093B2, “Composition for use as an antiviral in the form of nasal drops and in nebulisers” (DERMOPARTNERS, S.L., priority 2021, dated 2025).

Test system: SARS-CoV-2
Conditions: concentration of 5% m/v

OC[C@@H](O)[C@H](O)[C@@H](O)CO [xylitol]
viricidal and antiviral activity on SARS-CoV-2: viricidal and exhibit antiviral activity
